Measured values published in the NIST ThermoML archive (doi:10.1016/j.jct.2012.08.030).

Legend:
[1] = 101.3 kPa, Liquid; for speed of sound: Sing-around technique in a fixed-path interferometer; for mass density: Vibrating tube method
[2] = refractive index (Na D-line) (dimensionless); settings: 101.33 kPa, Liquid, Standard Abbe refractometry
[3] = xn = mol fraction of the nth substance listed; settings: 101.3 kPa, Liquid, x2 = 0; for speed of sound: Sing-around technique in a fixed-path interferometer; for mass density: Vibrating tube method
[4] = refractive index (Na D-line) (dimensionless); xn = mol fraction of the nth substance listed; settings: 101.3 kPa, Liquid, Standard Abbe refractometry, x2 = 0

CCCCn1cc[n+](C)c1.COS(=O)(=O)[O-] [1-butyl-3-methylimidazolium methyl sulfate]
Settings	mass density, [1] [kg/m3]	refractive index, [2]	speed of sound, [1] [m/s]
298.15 K	1212.06	1.47824	1654.6
303.15 K	1208.7	1.47704	1642.2
308.15 K	1205.35	1.47577	1630
313.15 K	1202.01	1.47443	1617.9

CCCCO [butan-1-ol]
Settings	mass density, [1] [kg/m3]	refractive index, [2]	speed of sound, [1] [m/s]
298.15 K	805.93	1.39747	1239.3
303.15 K	802.088	1.39549	1222.9
308.15 K	798.214	1.39342	1206.3
313.15 K	794.301	1.39138	1189.7

CCCCO [butan-1-ol] + CCCCn1cc[n+](C)c1.COS(=O)(=O)[O-]
Settings	mass density, [3] [kg/m3]	refractive index, [4]	speed of sound, [3] [m/s]
298.15 K	805.93	1.39747	1239.3
303.15 K	802.088	1.39549	1222.9
308.15 K	798.214	1.39342	1206.3
313.15 K	794.301	1.39138	1189.7

CO [methanol]
Settings	mass density, [1] [kg/m3]	refractive index, [2]	speed of sound, [1] [m/s]
298.15 K	787.405	1.3272	1104.3
303.15 K	782.688	1.32552	1088.3
308.15 K	777.941	1.32362	1072
313.15 K	773.168	1.32171	1055.9

CO [methanol] + CCCCn1cc[n+](C)c1.COS(=O)(=O)[O-]
Settings	mass density, [3] [kg/m3]	refractive index, [4]	speed of sound, [3] [m/s]
298.15 K	787.405	1.3272	1104.3
303.15 K	782.688	1.32552	1088.3
308.15 K	777.941	1.32362	1072
313.15 K	773.168	1.32171	1055.9

CCCO [propan-1-ol]
Settings	mass density, [1] [kg/m3]	refractive index, [2]	speed of sound, [1] [m/s]
298.15 K	800.008	1.38334	1205.9
303.15 K	795.97	1.38131	1189.3
308.15 K	791.892	1.37926	1172.4
313.15 K	787.772	1.37722	1155.5

CCCO [propan-1-ol] + CCCCn1cc[n+](C)c1.COS(=O)(=O)[O-]
Settings	mass density, [3] [kg/m3]	refractive index, [4]	speed of sound, [3] [m/s]
298.15 K	800.008	1.38334	1205.9
303.15 K	795.97	1.38131	1189.3
308.15 K	791.892	1.37926	1172.4
313.15 K	787.772	1.37722	1155.5

CC(C)O [propan-2-ol]
Settings	mass density, [1] [kg/m3]	refractive index, [2]	speed of sound, [1] [m/s]
298.15 K	781.123	1.37527	1138.7
303.15 K	776.845	1.37314	1121.4
308.15 K	772.487	1.37093	1103.9
313.15 K	768.053	1.3687	1086.6

CC(C)O [propan-2-ol] + CCCCn1cc[n+](C)c1.COS(=O)(=O)[O-]
Settings	mass density, [3] [kg/m3]	refractive index, [4]	speed of sound, [3] [m/s]
298.15 K	781.123	1.37527	1138.7
303.15 K	776.845	1.37314	1121.4
308.15 K	772.487	1.37093	1103.9
313.15 K	768.053	1.3687	1086.6
